Measurements from patent publication US10329231B2, “Epoxy compound, method for producing the same, epoxy resin composition, and cured product thereof” (DIC Corporation, priority 2012, dated 2019).

Columns and labels:
Assay type in all cases: physicochemical
[1] = Solubility in hexane during purification; conditions: reflux then room temperature
Experimental: Oxidative coupling reaction and solvent extraction were performed under the same conditions as in Example 1. Ethyl acetate was distilled off under vacuum, and then hexane was added to the resultant crude product. The mixture was transferred to a SUS container provided with a thermometer, a stirrer, and Dean-Stark trap, and hexane was further added so that the total amount was 5 L, followed by reflux. The hexane solution was cooled to room temperature, and then insoluble substances were filtered off. The solvent of the filtrate was distilled off under vacuum, and the residue was dried at 110° C. for 5 hours to produce 2 g (yield 3%) of a solid containing [1,1′-binaphthalene]-2,2′,7,7′-tetraol as a main component.

[2] = Softening point, ball & ring (B & R) method, JIS K7234; conditions: glycerin heating medium
Source text: 2) Method for measuring softening point: measured by a ball & ring (B & R) method using glycerin as a heating medium according to JIS K7234.
Apparatus name: ASP-M2 model manufactured by Meitec Corporation

[3] = Melt viscosity at 150° C., ASTM D4287 (ICI viscometer method); set-up: Melt viscosity at 150° C. of epoxy resin: unit not given here; conditions: for Melt viscosity at 150° C. of epoxy resin: Table 1
Experimental: 1) Melt viscosity at 150° C.: measured with an apparatus below according to ASTM D4287.
Apparatus name: MODEL CV-1S manufactured by Codex Corporation

solubility in hexane [1]	Softening point of epoxy resin [2] [°C]	Melt viscosity at 150° C. of epoxy resin ([3]; 150° C.)	melt viscosity ([3]; ICI viscometer method, measurement temperature 150° C.) [dPa·s]	150° C. melt viscosity ([3]; 150° C., data given with the product description) [ps]	Compound
low solubility	–	–	–	–	Oc1ccc2ccc(O)c(-c3c(O)ccc4ccc(O)cc34)c2c1 [1,1′-Binaphthalene]-2,2′,7,7′-tetraol, [1,1′-binaphthalene]-2,2′,7,7′-tetraol]
–	61	1.1	1.1	–	c1cc2ccc(OCC3CO3)c(-c3c(OCC4CO4)ccc4ccc(OCC5CO5)cc34)c2cc1OCC1CO1 (stereo not shown) [Example A-1, 2,2′,7,7′-tetraglycidyloxy-[1,1′-binaphthalene]]
–	91	4.5	–	4.5	c1cc2ccc(OCC3CO3)c(Cc3c(OCC4CO4)ccc4ccc(OCC5CO5)cc34)c2cc1OCC1CO1 (stereo not shown) [Example A-2, reference compound]
